Legend:
[1] = Highest frequency of acute liver toxicity observed during clinical trials, expressed as a percentage. [column '% AIGUE' in source]; conditions: human
[2] = human
[3] = human; remark: listed apart in the source
[4] = human, serum, 4383 h
[5] = human; remark: listed apart in the source
[6] = human; remark: listed apart in the source
[7] = human; remark: listed apart in the source
[8] = human, serum
[9] = human; remark: listed apart in the source
[10] = Highest frequency of moderate liver toxicity observed during clinical trials, expressed as a percentage. [column '% BIOL' in source]; conditions: human
[11] = Times to onset, minimal and maximal, observed in the indexed observations. [column 'DELAI' in source]; conditions: human
[12] = human; remark: listed apart in the source
[13] = human; remark: listed apart in the source
[14] = human; remark: listed apart in the source
[15] = human; remark: listed apart in the source
[16] = human, serum; remark: listed apart in the source
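For Hepatotoxicity (association with vascular disease) in this document: count of indexed literature references reporting vascular liver injury in humans, e.g. peliosis hepatitis, hepatic veno-occlusive disease or Budd-Chiari syndrome.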
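For Hepatotoxicity (benign tumour) in this document: value is a count of indexed literature references citing a benign tumour confirmed by histopathology.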
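For Hepatotoxicity (choleostasis) in this document: human cholestatic liver injury, shown by histopathology or by peak ALT or AST elevation over alkaline phosphatase ratio below 2, value counts indexed literature reports.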
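For Hepatotoxicity (chronic liver disease) in this document: chronic liver injury confirmed by histopathology or persistently raised serum aminotransferase activity beyond 6 months, value given as the count of indexed literature references.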
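For Hepatotoxicity (cirrhosis) in this document: value is a count of indexed literature references reporting cirrhosis confirmed by histopathology.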
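For Hepatotoxicity (cytolytic) in this document: human cytolytic liver injury, shown by histopathology or by a ratio above 5 of peak ALT or AST elevation to alkaline phosphatase elevation, value counts indexed references.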
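For Hepatotoxicity (granulomatous hepatitis) in this document: value is a count of indexed literature references reporting granulomatous liver disease confirmed by histopathology.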
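For Hepatotoxicity (malignant tumour) in this document: malignant tumour confirmed by histopathology, value gives the count of indexed literature references reporting it.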
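For Hepatotoxicity (severe hepatitis) in this document: human clinical data: severe hepatitis, meaning potentially life-threatening liver failure or clinically observed cases, the value counts how many indexed literature references report it.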
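For Hepatotoxicity (steatosis) in this document: steatosis confirmed by histopathology, value is the count of indexed references.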

Compound | Hepatotoxicity (acute) [1] [%] | Hepatotoxicity (malignant tumour) [2] | Hepatotoxicity (association with vascular disease) [3] | Hepatotoxicity (chronic liver disease) [4] | Hepatotoxicity (steatosis) [5] | Hepatotoxicity (granulomatous hepatitis) [6] | Hepatotoxicity (cirrhosis) [7] | Hepatotoxicity (moderate) [8] | Hepatotoxicity (benign tumour) [9] | Hepatotoxicity (moderate) [10] [%] | Hepatotoxicity (severe hepatitis) [12] | Hepatotoxicity (animal toxicity known) [13] | Hepatotoxicity (choleostasis) [14] | Hepatotoxicity (cytolytic) [15] | Hepatotoxicity (acute) [16] | further results
O=NN(CCCl)C(=O)NC1CCCCC1 [LOMUSTINE] | 0 | 0 | 0 | 0 | 0 | 0 | 0 | 4 | 0 | 39 | 1 | yes | 2 | 1 | 2 | Hepatotoxicity (time to onset) [11]: 2 days - 4 months
O=C1Nc2ccc(Cl)cc2C(c2ccccc2)=NC1O (stereo not given) [OXAZEPAM] | – | 0 | 1 | 0 | 0 | – | 0 | 0 | 0 | – | – | yes | – | – | 0 | Hepatotoxicity (acute) ([1]; Liver): 0%; Hepatotoxicity (granulomatous hepatitis) ([6]; Liver): 0; Hepatotoxicity (moderate) ([10]; Liver): 0%; Hepatotoxicity (severe hepatitis) ([12]; Liver): 0; Hepatotoxicity (choleostasis) ([14]; Liver): 0; Hepatotoxicity (cytolytic) ([15]; Liver): 0
NC[C@@H]1CC[C@@H](N)[C@@H](O[C@H]2[C@H](O)[C@@H](O[C@H]3O[C@H](CO)[C@@H](O)[C@H](N)[C@H]3O)[C@H](N)C[C@@H]2N)O1 [DIBEKACIN] | 0 | 0 | 0 | 0 | 0 | 0 | 0 | 1 | 0 | 13.7 | 0 | yes | 0 | 0 | 0 | –
CC[C@]1(O)C[C@@H]2CN(CCc3c([nH]c4ccccc34)[C@@](C(=O)OC)(c3cc4c(cc3OC)N(C)[C@H]3[C@@](O)(C(N)=O)[C@H](O)[C@]5(CC)C=CCN6CC[C@]43[C@@H]65)C2)C1 [VINDESINE] | 0 | 0 | 0 | 0 | 0 | 0 | 0 | 2 | 0 | 9.1 | 0 | yes | 0 | 0 | 0 | –
Cc1cn([C@H]2CC[C@@H](CO)O2)c(=O)[nH]c1=O | 0 | 0 | 0 | 0 | 0 | 0 | 0 | 1 | 0 | 30 | 0 | yes | 0 | 0 | 0 | –
CN(C)[C@@H]1C(O)=C(C(N)=O)C(=O)[C@@]2(O)C(O)=C3C(=O)c4c(O)ccc(Cl)c4[C@@](C)(O)[C@H]3C[C@@H]12 [CHLORTETRACYCLINE] | 0 | 0 | 0 | 0 | 3 | 0 | 0 | 0 | 0 | 0 | 0 | yes | 1 | 1 | 4 | –
C[C@]12CC[C@@H]3c4ccc(O)cc4CC[C@H]3[C@@H]1CC[C@@H]2O [ESTRADIOL] | 0 | 0 | 0 | 0 | 0 | 0 | 0 | 0 | 0 | 0 | 0 | yes | 1 | 0 | 1 | –
CCOC(=O)C1(c2ccccc2)CCN(CCC(O)c2ccccc2)CC1 (stereo not given) [PHENOPERIDINE] | 0 | 0 | 0 | 0 | 0 | 0 | 0 | 0 | 0 | 0 | 0 | yes | 1 | 0 | 1 | –
POVIDONE-IODINE | 0 | 0 | 0 | 0 | 0 | 0 | 0 | 2 | 0 | 80 | 0 | yes | 0 | 0 | 2 | –
Cc1[nH]cnc1CSCCNc1ncc(Cc2ccc3c(c2)OCO3)c(=O)[nH]1 [OXMETIDINE] | 0.1 | 0 | 0 | 0 | 0 | 0 | 0 | 1 | 0 | 0 | 0 | yes | 0 | 0 | 1 | –
CCCC1C(=O)N2C(N(C)C)=Nc3ccc(C)cc3N2C1=O (stereo not given) [APAZONE] | – | 0 | 0 | 0 | 0 | 1 | 0 | 1 | 0 | 0 | 0 | yes | 1 | 0 | – | Hepatotoxicity (time to onset) [11]: 3 weeks
